# Reference: patent publication US5213797A, “A80407 antibiotics” (Eli Lilly and Company, priority 1990, dated 1993)
# Bridge positions count the residues as written; N and C are the ends. Square brackets hold non-standard residues; d marks the D form. Peptide text beside a SMILES is read from it. * marks the point of attachment. Ileψ(thiazoline)Cys = CC[C@H](C)[C@H](N)C1=N[C@H](C(=O)*)CS1; dOrn = NCCC[C@@H](N)C(=O)O
# How the values were obtained:
# [1] = system: Kibdelosporangium philippinensis (cultures A80407 and A80407.4); assay: Lysozyme resistance of the producing cultures; format: cell-based; details: both cultures
# Text: Methods recommended by Gordon et.al. [R. E. Gordon, D. A. Barnett, J. E. Handerhan, and C. H. Pang, "Nocardia coeliaca, Nocardia autotrophica, and the Nocardin Strain," Int. J. Syst. Bacteriol. 24, (1), 54-63 (1974)] were followed for the majority of physiological tests.
# [2] = system: Kibdelosporangium philippinensis (cultures A80407 and A80407.4); assay: Resistance to antibiotics of the producing cultures, antibiotic sensitivity discs on seeded ISP No. 2 agar; details: 10 units; both cultures
Molecule,Resistance to lysozyme [1],Resistance to antibiotics [2]
lysozyme,Neither culture was resistant,
CC[C@H](C)[C@H](N)C1=N[C@H](C(=O)N[C@@H](CC(C)C)C(=O)N[C@H](CCC(=O)O)C(=O)N[C@H](C(=O)N[C@H]2CCCCNC(=O)[C@H](CC(N)=O)NC(=O)[C@@H](CC(=O)O)NC(=O)[C@H](Cc3cnc[nH]3)NC(=O)[C@@H](Cc3ccccc3)NC(=O)[C@H]([C@@H](C)CC)NC(=O)[C@@H](CCCN)NC2=O)[C@@H](C)CC)CS1 [bacitracin] ({Ileψ(thiazoline)Cys}-L[dE]IK[dOrn]I[dF]H[dD]N; lactam 4-C),,sensitive
